The species entered for test [1] is Rattus norvegicus. In words: Compound was tested for percent recovery of noradrenergic tone after washing aortic preparations with fresh Kreb's buffer. In kind it is functional. As to conditions: Aorta.
The species named for test [2] is Rattus norvegicus. In words: Compound was tested for its vasodilator effects on endothelium-denuded strips of rat aorta precontracted with noradrenaline. Format: functional.

In general, EC50 refers to the concentration needed to bring the measured effect to its halfway point. High values mean a less potent agent, low ones a more potent agent.

As to `N#Cc1c(-c2ccccc2)no[n+]1[O-]` [FUROXAN], the Recovery in the test filed under Rattus norvegicus [1] worked out at 66%.

`O=[N+]([O-])OCC(CO[N+](=O)[O-])O[N+](=O)[O-]` [NITROGLYCERIN] had an EC50 in the test filed under Rattus norvegicus [2] of 22 nM.

(Values after ChEMBL document CHEMBL1127832, “Furoxans as nitric oxide donors. 4-Phenyl-3-furoxancarbonitrile: thiol-mediated nitric oxide release and biological evaluation” (J Med Chem, 1994).)
